Measurements as given in US20250194594A1, “ATTRACTANT COTTON SEED BUG, OXYCARENUS Hyalinipennis, AND USES THEREOF” (The United States of America, as represented by the …, priority 2023, published 2025).
“Also recorded” adds a separate entry of the source.

Legend:
[1] = test system: cotton seed bugs (CSBs); test: Pheromone function assigned from the behavioral responses and VOC profiles; type: in vivo, Oxycarenus hyalinipennis; settings: summary statement; compounds not tested singly in the bioassays
[2] = test system: cotton seed bug (CSB), Oxycarenus hyalinipennis; test: Field test, attractants formulated in rubber septa in a cotton field with low CSB population; type: in vivo; settings: cotton field where CSB population was low, vs control (no treatment), listed as 4-oxo-E2-8: ald
Excerpt: (§1) The mean number of O. hyalinippenis in different treatment traps (captures/week) in field trials were compared by one-way analysis of variance (ANOVA) followed by Ryan-Einot-Gabriel-Welsch F test (SPSS 10.0 for Windows) following D George and P Mallery (2002, “SPSS for Windows Step by Step: A Simple Guide and Reference,” 11.0 Update. 4th Edition, Allyn & Bacon; Boston, Massachusetts, USA). All statistical comparisons were considered for significance at α=0.05.
(§2) Different pheromones or mixtures of pheromones were tested for their ability to attract CSB in the field.
In a separate field test, a mixture of E2-octenal, 4-oxo-E2-octenal, and E2-octenyl acetate in a ratio of 1:2:7, as well as the single attractant component, 4-oxo-E2-8: ald, were tested. The compounds were formulated in rubber septa in a cotton field where the population of CSB was low. CSB formed the majority of insects caught in the traps. Trap specificity was much higher than in the test described above.

[3] = cited from earlier work
[4] = test system: cotton seed bug (CSB), Oxycarenus hyalinipennis; test: Field test, pheromones in plastic vials in a cotton field with high CSB population; type: in vivo; settings: counted after 1 hour, compared among treatment groups including control (no treatment)
Excerpt: as §1, §2
Field tests were conducted by adding one or more of the identified pheromones to plastic vials and placing the vials in a cotton field with high CSB population, followed by counting the CSB caught after one (1) hour.
A field test was conducted using E2-octenal, E2-octenyl acetate, and a mixture of E2-octenal and E2-octenyl acetate. The compounds were placed in plastic vials in a cotton field with a high population of CSB. Many other bugs were also captured in the traps (numbers were not included).

[5] = cited from earlier work; remark: listed apart in the source

| Compound | pheromone function [1] | further results |
| --- | --- | --- |
| CCCCCCC/C=C/C=O (single isomer, unassigned) [(E)-2-Decenal] | performed as oviposition pheromones |  |
| CCC(=O)/C=C/C=O [4-Oxo-(E)-2-hexenal] | performed as CSB attraction pheromones |  |
| CCCCC(=O)/C=C/C=O [4-Oxo-(E)-2-octenal] |  | CSB trapped compared with control [2]: trapped significantly more CSB than control; also recorded: attract CSB |
| CCC/C=C/C=O [(E)-2-Hexenal] | performed as CSB attraction pheromones |  |
| CCC/C=C/COC(C)=O [(E)-2-Hexenyl acetate, (E)-2-hexen-1-yl acetate] | performed as CSB attraction pheromones |  |
| CCCCC/C=C/C=O [(E)-2-Octenal] | performed as CSB attraction pheromones; also recorded: performed as oviposition pheromones | solubility (in water) [3]: practically insoluble; number of CSB caught in the traps [4]: not significantly different; basicity (based on its pKa) [5]: extremely weak basic (essentially neutral) |
| CCCCC/C=C/COC(C)=O [(E)-2-Octenyl acetate] | performed as CSB attraction pheromones; also recorded: performed as oviposition pheromones | number of CSB caught in the traps [4]: not significantly different |
| CC(C)=CCC[C@]1(C)[C@H]2CC=C(C)[C@@H]1C2 [(E)-α-Bergamotene] | performed as alarm (repellent) pheromones |  |
| C=C/C(C)=C/C/C=C(/C)CCC=C(C)C [(Z, E)-α-Farnesene] | performed as alarm (repellent) pheromones |  |
| CC1=CCC2CC1C2(C)C (stereo not drawn) [α-Pinene, 2,6,6-Trimethylbicyclo[3.1.1]hept-2-ene] | performed as CSB attraction pheromones |  |
